According to patent US6972319B1, “Pituitary adenylate cyclase activating peptide (PACAP)receptor 3 (R3) agonists and their pharmacological methods of use” (priority 1999, dated 2005):
No end group written: not given here.

Legend:
PACAP-R3 = molecular target: T1, PACAP-R3 (Homo sapiens, UniProt P41587); test: Cyclic AMP SPA on CHO cells expressing PACAP R3; type: cell-based; design: expressed in transfected cells; host or cells: CHO cells (Geneticin selection); conditions: for EC50: cAMP SPA, CHO cells transfected with PACAP-R3, concentration at which 50% of maximum PACAP27 activity is achieved, NA = no detectable activities, read-out: R3 EC50; for R3 Selectivity: ratio of EC50 at R2 versus EC50 at R3
T1 sequence (P41587 24-438): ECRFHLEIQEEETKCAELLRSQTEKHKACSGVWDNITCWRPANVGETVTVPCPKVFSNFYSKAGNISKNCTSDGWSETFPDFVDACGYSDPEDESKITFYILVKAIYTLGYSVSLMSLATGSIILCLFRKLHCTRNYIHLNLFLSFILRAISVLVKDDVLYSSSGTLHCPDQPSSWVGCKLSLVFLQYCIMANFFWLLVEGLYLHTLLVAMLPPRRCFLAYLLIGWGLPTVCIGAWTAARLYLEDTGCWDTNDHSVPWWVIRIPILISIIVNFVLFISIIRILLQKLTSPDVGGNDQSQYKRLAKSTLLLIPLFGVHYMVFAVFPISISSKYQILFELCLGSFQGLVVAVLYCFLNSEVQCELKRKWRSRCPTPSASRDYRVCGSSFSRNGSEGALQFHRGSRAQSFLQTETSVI
In short: (§1)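 cAMP SPA readout; CHO stable lines, 24 h culture before use. Peptide treatment 15 min, 37 C, buffer with IBMX 100 uM plus trypsin inhibitor and bacitracin. EC50 = conc. reaching half of max PACAP27 response; R3 selectivity = EC50(R2)/EC50(R3).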

[1] = Peptide-induced elevation of plasma insulin after IVGTT in rats; type: in vivo; conditions: one minute after IVGTT (0.4 g/kg glucose), Wistar rats
Procedure: Wistar rats are fasted overnight (17 hrs) and then anesthetized with pentobarbital (0.1 ml/100 g BW). Glucose (0.4 g/kg dissolved in 1% human albumin-saline)+/−peptide (dissolved in 1% human albumin-saline) is injected intravenously into the tail vein. The rats are eye-bled 1 minute after the injection and 50-100 ul of the plasma are assayed for insulin level with the Linco RIA kit (Linco Research, Inc., St. Charles, Mo.).
In accordance with the protocol of example 2 above, overnight fasted Wistar rats were anesthetized with pentobarital; i.v. injected with glucose±peptide and eye bled after 1 minute. N=12 rats/group. […] The peptide or vehicle was given i.v. followed by a glucose load given i.p. in accordance with example 3. The plasma glucose was followed over the time period indicated.
Plasma insulin: Data are expressed as % of plasma insulin one minute after IVGTT (0.4 g/kg glucose) with either saline, 0.1 nmol/kg P51, P55, P60, P66 or 1 nmole/kg of the other peptides in Wistar rats. Blood was drawn from the eye and insulin was measured with the rat insulin RIA kit (Linco Research, Inc., St. Charles, Mo.).

PACAP-R2 = molecular target: T2, PACAP-R2 (Homo sapiens, UniProt P32241); test: Cyclic AMP SPA on CHO cells transfected with PACAP-R2; type: cell-based; conditions: cAMP SPA, concentration at which 50% of maximum PACAP27 activity is achieved, NA = no detectable activities, read-out: R2 EC50
T2 construct: expressed in transfected cells; host or cells: CHO cells
T2 sequence (P32241 31-457): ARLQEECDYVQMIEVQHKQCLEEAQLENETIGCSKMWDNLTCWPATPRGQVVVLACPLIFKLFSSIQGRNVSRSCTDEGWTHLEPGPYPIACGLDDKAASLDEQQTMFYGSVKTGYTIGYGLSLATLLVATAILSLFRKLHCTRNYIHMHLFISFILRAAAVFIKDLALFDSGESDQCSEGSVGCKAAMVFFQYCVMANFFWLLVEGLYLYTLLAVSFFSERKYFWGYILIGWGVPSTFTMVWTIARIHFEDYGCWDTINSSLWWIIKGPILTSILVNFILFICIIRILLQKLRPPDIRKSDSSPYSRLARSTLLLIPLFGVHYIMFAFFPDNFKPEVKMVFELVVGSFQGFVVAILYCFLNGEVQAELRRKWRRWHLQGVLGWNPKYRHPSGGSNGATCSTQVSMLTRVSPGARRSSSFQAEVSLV
In short: as §1

[2] = Intraperitoneal glucose tolerance test (IPGTT), plasma glucose in rats; type: in vivo, Wistar rats; conditions: for elevation of plasma glucose 30 minutes after IPGTT: 1 nmole/kg s.c., rats, FIG. 7; for Plasma Glucose (% of Basal) s.c.: plasma glucose after IPGTT (1 g/kg glucose), 1 nmol/kg peptide s.c.
Procedure: Wistar rats are fasted overnight and then anesthetized with pentobarbital. The rats were eye-bled (zero time) and the peptide (in 1% human albumin) was injected into the tail vein. Five minutes later, 1 g/kg of glucose (in saline) was injected intraperitoneally, and the rats were eye-bled after 15, 30 and 60 minutes. Plasma glucose levels were determined using the Technicon Axon autoanalyzer, Bayer Diagnosics division of Bayer Corporation, Tarrytown N.Y., operated using Method No. SM4-2143F90“Glucose”.
Wistar rats were fasted overnight and then anesthetized with Pentobarbital. The rats were eye-bled (zero time) and the peptide (in 1% human albumin) was injected subcutaneously. Five minutes later, 1 g/kg of glucose (in saline) was injected intraperitoneally, and the rats were eye-bled after 30 minutes.
Plasma glucose: Data are expressed as % of vehicle of plasma glucose area under the curve after IPGTT (1 g/kg glucose) after treatment with 1 nmol/kg dose of the peptide. […] The present inventors have shown for the first time that this is because the effects of R2 and R3 on glucose tend to cancel each other out. […] Therefore, R3-selectivity appears to be a desirable attribute for medicaments which are to be employed in achieving blood glucose reduction, for treatment of type 2 diabetes.

rat islets = test: Insulin secretion by isolated rat islets; type: cell-based, Sprague-Dawley rats; conditions: 10 nM peptide, 2 hrs, 8 mM glucose; % of [insulin] in 8 mM glucose alone
Procedure: Sprague Dawley rats (275-320 g) were used as the source of donor islets. Briefly, the pancreas was filled with 10 ml of cold reconstituted Liberase RI (Boehringer Manheim), harvested and incubated with additional 5 ml enzyme solution in water bath for 30 minutes. Tissue suspension was washed twice with cold 10% FBS/Hanks buffer (Gibco), resuspended in 8 ml 25% ficoll (Sigma) and then layered with 5 ml each of 23%, 20% and 11% ficoll. The islets in the 20% layer after centrifugation were removed, washed twice with cold 10% FBS/Hank buffer and resuspended in 10% FBS/RPMI 1640 media (Sigma).
Islet insulin release: Rat islets were isolated from Sprague-Dawley rats as described in example 1 and treated with either vehicle or specified peptide (10 nM) for 2 hrs. Insulin concentration in the medium was measured with the Linco rat insulin RIA kit. Glucose concentration in the medium was 8 mM. The data are expressed as % of [insulin] in 8 mM glucose alone.

Row | Compound | EC50 (PACAP-R3) | Plasma Insulin (% of Basal) ([1]; 1 nmole/kg peptide i.v.) | R3 Selectivity (PACAP-R3) | EC50 (PACAP-R2) | Plasma Insulin (% of Basal) ([1]; 0.1 nmol/kg peptide i.v.) | elevation of plasma glucose 30 minutes after IPGTT [2] | Plasma Glucose (% of Basal) s.c. ([2]; % of vehicle) | Islet Insulin Release (% of Basal) (rat islets) | Plasma Glucose (% of Basal) i.v. ([2]; plasma glucose area under the curve after IPGTT (1 g/kg glucose), 1 nmol/kg peptide i.v., % of vehicle)
1 | CC[C@H](C)[C@H](NC(=O)[C@H](CO)NC(=O)[C@H](CCC(N)=O)NC(=O)[C@H](CC(C)C)NC(=O)[C@H](Cc1ccc(O)cc1)NC(=O)[C@H](CCCCN)NC(=O)[C@H](CCCCN)NC(=O)[C@@H](NC(=O)[C@H](C)NC(=O)[C@@H](NC(=O)[C@H](CCC(N)=O)NC(=O)[C@H](CCCCN)NC(=O)[C@H](CCCNC(=N)N)NC(=O)[C@H](CC(C)C)NC(=O)[C@H](CCCNC(=N)N)NC(=O)[C@@H](NC(=O)[C@H](Cc1ccc(O)cc1)NC(=O)[C@H](CC(N)=O)NC(=O)[C@H](CC(=O)O)NC(=O)[C@@H](NC(=O)[C@H](Cc1ccccc1)NC(=O)[C@@H](NC(=O)[C@H](C)NC(=O)[C@H](CC(=O)O)NC(=O)[C@H](CO)NC(=O)[C@@H](N)Cc1c[nH]cn1)C(C)C)[C@@H](C)O)[C@@H](C)O)C(C)C)C(C)C)C(=O)N[C@@H](CCCCN)C(=O)N[C@@H](CCCCN)C(=O)N[C@@H](CCCCN)C(=O)N[C@@H](CCCNC(=N)N)C(=O)O [Peptide R3P80] | 0.44 nM | 360% | – | – | – | – | – | – | –
2 | H-HSDAVFTDNYTRLRKQMAAKKYLNSIKNKRY [Peptide R3P55] | 0.17 nM | – | 280 | 50 nM | 208% | – | – | – | –
3 | HSDAVFTDNYTRLRKQLAAKKYLNDIKK-NH2 [Peptide R3P13] | 5 nM | – | 33 | 163 nM | – | significantly reduced | – | – | –
4 | HSDAVFTDNYTRLRKQLAAKKYLNDIKKGGT [Peptide R3P12] | 0.5 nM | 302% | >200 | > 100 nM | – | significantly reduced | 76% | 324% | –
5 | HSDAVFTDNYTRLRKQLAAKKYLNDIKKKRY [Peptide R3P36] | 0.4 nM | 255% | >200 | > 90 nM | – | – | 78% | – | 73%
6 | HSDAVFTDNYTRLRKQMAAKKYLNSIKK [Peptide R3P51] | 0.26 nM | – | 90 | 23 nM | 259% | – | – | – | –
7 | HSDAVFTDNYTRLRKQMAVKKYLNSIKKGGT [Peptide R3P9] | 2 nM | – | 20 | 40 nM | – | – | – | 221% | –
8 | HSDAVFTDNYTRLRKQVAAKKYLQSIKK [Peptide R3P60] | 1 nM | – | 120 | 120 nM | 283% | – | – | – | –
9 | HSDAVFTDNYTRLRKQVAAKKYLQSIKKKR [Peptide R3P77] | 0.4 nM | 388% | 500 | 200 nM | – | – | – | – | –
10 | HSDAVFTDNYTRLRKQVAAKKYLQSIKNKRY [Peptide R3P66] | 0.4 nM | – | 250 | 100 nM | 388% | – | 82% | 184% | –
11 | HSDAVFTDNYTRLRKQVAVKKYLQSIKKK [Peptide R3P81] | 0.5 nM | 302% | 100 | 50 nM | – | – | – | – | –
12 | HSDAVFTENYTKLRKQLAAKKYLNDLLNGGT [Peptide R3P10] | 11 nM | – | 0.3 | 3 nM | – | – | – | 174% | –
13 | PACAP 27: 27-amino acid form of pituitary adenylate cyclase activating peptide with an amidated carboxyl terminus [reference compound] | – | 320% | – | – | – | – | – | 186% | –
